Measured values reported in ChEMBL document CHEMBL1201862, “PubChem BioAssay data set” (2004).
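Assay format: 96-well plates, 48-hour exposure. GI50 = concentration required for 50% inhibition of growth.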 Calls of active or inactive are those of the source. No stated cut-off is given here; in the data, active = GI50 up to about 1.1 µM and inactive = higher.

Legend:
Experiment in all cases: NCI anticancer screen, dose series, 48 h
OVCAR-5 = system: OVCAR-5
K562 = system: K562
SNB-75 = system: SNB-75
OVCAR-4 = system: OVCAR-4
NCI-H522 = system: NCI-H522
A498 = system: A498
786-0 = system: 786-0
SK-MEL-28 = system: SK-MEL-28
SN12C = system: SN12C
SK-OV-3 = system: SK-OV-3
HOP-62 = system: HOP-62
SK-MEL-2 = system: SK-MEL-2
HL-60 = system: HL-60
HCT-15 = system: HCT-15
KM12 = system: KM12
HCC 2998 = system: HCC 2998

Structure (SMILES) | GI50 (OVCAR-5) | GI50 (K562) | GI50 (SNB-75) | GI50 (OVCAR-4) | GI50 (NCI-H522) | GI50 (A498) | GI50 (786-0) | GI50 (SK-MEL-28) | GI50 (SN12C) | GI50 (SK-OV-3) | GI50 (HOP-62) | GI50 (SK-MEL-2) | GI50 (HL-60) | GI50 (HCT-15) | GI50 (KM12) | GI50 (HCC 2998)
N=C(N)NS(=O)(=O)c1ccc(NC(=O)c2ccc(Cl)c3c(Nc4ccc(S(=O)(=O)N=C(N)N)cc4)c4ccccc4nc23)cc1 | > 100 µM (inactive) | 38.1 µM (inactive) | 24.5 µM (inactive) | > 100 µM (inactive) | 38.2 µM (inactive) | > 100 µM (inactive) | > 100 µM (inactive) | 61 µM (inactive) | > 100 µM (inactive) | > 100 µM (inactive) | 53.2 µM (inactive) | 39.5 µM (inactive) | 41.3 µM (inactive) | > 100 µM | 24.5 µM (inactive) | 
COc1ccc(NC(=O)CC2SC(Nc3ccc(Cl)cc3C)=NC2=O)c([N+](=O)[O-])c1 (configuration not stated) | > 100 µM (inactive) | > 100 µM (inactive) | > 100 µM (inactive) | > 100 µM (inactive) | > 100 µM (inactive) | > 100 µM (inactive) | > 100 µM (inactive) | > 100 µM (inactive) | > 100 µM (inactive) |  |  | > 100 µM (inactive) | > 100 µM (inactive) | > 100 µM |  | > 100 µM (inactive)
c1ccc(CNn2nnc3ccccc32)cc1 | > 100 µM (inactive) | > 100 µM (inactive) | > 100 µM (inactive) | > 100 µM (inactive) | > 100 µM (inactive) |  | > 100 µM (inactive) | > 100 µM (inactive) | > 100 µM (inactive) | > 100 µM (inactive) | > 100 µM (inactive) | > 100 µM (inactive) | > 100 µM (inactive) | > 100 µM | > 100 µM (inactive) | > 100 µM (inactive)
CC(C)OP(=O)(OC(C)C)/C(=N/Nc1ccccc1[N+](=O)[O-])NCCN/C(=N\Nc1ccccc1[N+](=O)[O-])P(=O)(OC(C)C)OC(C)C | 24.2 µM (inactive) | 35.3 µM (inactive) | 89.3 µM (inactive) | 48.1 µM (inactive) | 31.8 µM (inactive) | 49.5 µM (inactive) | 33 µM (inactive) | 39.4 µM (inactive) | 43.7 µM (inactive) |  | 52.8 µM (inactive) | 19.6 µM (inactive) | 23.7 µM (inactive) | 30.3 µM | 40.3 µM (inactive) | 39.4 µM (inactive)
COc1ccc([C@@H]2CC(=O)NCCCNCCCCNCCCN2)cc1 | > 100 µM (inactive) | > 100 µM (inactive) | > 100 µM (inactive) | > 100 µM (inactive) | 30.8 µM (inactive) | > 100 µM (inactive) | > 100 µM (inactive) | > 100 µM (inactive) | > 100 µM (inactive) | > 100 µM (inactive) | > 100 µM (inactive) | > 100 µM (inactive) | > 100 µM (inactive) | > 100 µM | > 100 µM (inactive) | > 100 µM (inactive)
O=C(Nc1ccc(Cl)cc1C(F)(F)F)C(=O)C1CCCS1(=O)=O (configuration not stated) | > 100 µM (inactive) | > 100 µM (inactive) | > 100 µM (inactive) | > 100 µM (inactive) |  | > 100 µM (inactive) | > 100 µM (inactive) | > 100 µM (inactive) | > 100 µM (inactive) |  | > 100 µM (inactive) |  | > 100 µM (inactive) | > 100 µM | > 100 µM (inactive) | > 100 µM (inactive)
Cc1cn(C2OC(C)(CO)C(O)C2O)c(=O)[nH]c1=O (configuration not stated) | > 100 µM (inactive) | > 100 µM (inactive) | > 100 µM (inactive) | > 100 µM (inactive) | > 100 µM (inactive) | > 100 µM (inactive) | > 100 µM (inactive) | > 100 µM (inactive) | > 100 µM (inactive) | > 100 µM (inactive) | > 100 µM (inactive) | > 100 µM (inactive) | > 10 µM (inactive) | > 100 µM | > 100 µM (inactive) | > 100 µM (inactive)
O=C(O)c1ccc(C2C3C=CC(C3)C2[N+](=O)[O-])cc1 (configuration not stated) |  | > 100 µM (inactive) | 91.2 µM (inactive) |  | > 100 µM (inactive) | > 100 µM (inactive) | > 100 µM (inactive) | > 100 µM (inactive) | > 100 µM (inactive) | > 100 µM (inactive) | > 100 µM (inactive) | > 100 µM (inactive) | > 100 µM (inactive) | > 100 µM | > 100 µM (inactive) | > 100 µM (inactive)
CC(C)(CN1CCCCC1)C(=O)CC(SCCN)c1ccc(Cl)cc1 (configuration not stated) | 3.66 µM (inactive) | 1.18 µM (inactive) | 1.98 µM (inactive) | 3.1 µM (inactive) | 2.18 µM (inactive) | 2.32 µM (inactive) | 1.61 µM (inactive) | 3.43 µM (inactive) | 1.49 µM (inactive) | 2.6 µM (inactive) | 3.78 µM (inactive) | 1.7 µM (inactive) |  | 1.63 µM | 1.88 µM (inactive) | 1.85 µM (inactive)
